Patent US10335382B2, “Use of hydrogen sulfide synthesis inhibitors for cancer therapy” (THE BOARD OF REGENTS OF THE UNIVERSITY OF TEXAS SYSTEM, priority 2013, dated 2019)
Entries after “also recorded” stand apart in the source; their conditions may differ.

Legend:
[1] = tested on: human endothelial cells (EAhy926); assay: Endothelial cell migration in co-culture with HCT116; type: cell-based; conditions: 4 hours at 37° C.
Procedure: FIG. 3. […] (A, B) The lentiviral shRNA vectors targeting CBS (shCBS) and CSE (shCSE) were transfected into HCT116 cells. A non-targeting sequence was used as control (shNT). […] Following CBS and CSE silencing, cells were seeded at the density of 3000 cells/well in xCELLigence plates and proliferation was monitored for 36 hours. […] The NCM356 cells were infected overnight with a CBS expressing adenovirus (Ad-CBS, 10 multiplicity of infection (MOI)) or its control, a green fluorescent protein (Ad-GFP). The culture media was then replaced and cells were seeded in XCelligence plates at 3000 cells/well. Cell proliferation was then measured real-time over 36 hours. […] (H, I) The effect of AOAA and NaHS was also tested on HCT116 cell migration (H) and invasion (I). […]
Cellular migration and invasion assays were performed as described (Chao et al. (1996) Cancer Res. 56:4811-19). […] Migrated and invaded cells were then fixed in Carson's fixative, stained in 0.33% toluidine blue and quantified by visual counting. For the HCT116-EAhy926 co-culture experiment, the cancer cell line was grown to confluence in the bottom wells of the transwell chambers and then endothelial cell migration was assessed (Coletta et al. (2012) Proc Natl Acad Sci USA. 109:9161-66).

HCT116 colon cancer cell [2] = conditions: cell-based assays (Szabo et al. 2013); cited from earlier work
HCT116 cells = assay: Bioenergetic analysis in intact cells (XF24 Extracellular Flux Analyzer); type: cell-based, human; conditions: AOAA 1 mM
Procedure: The XF24 Extracellular Flux Analyzer (Seahorse Bioscience, Billerica, Mass.) was used to measure bioenergetic function as described in Módis et al. ((2013) FASEB J 27:601-11) and Wu et al. ((2007) Am J Physiol Cell Physiol. 292:C125-36). Oxygen consumption rate (OCR) after oligomycin (1.5 μg/ml) was used to assess ATP production rate and OCR after FCCP (0.5 μM) to assess maximal mitochondrial respiratory capacity. 2-deoxyglucose (100 mM) was used to estimate cellular glycolytic dependency and antimycin A (2 μg/m) and rotenone (2 μM) were used to inhibit the flux of electrons through complex III and I, to detect residual non-mitochondrial activity. For the measurement of glycolytic parameters, the changes in proton production rate (PPR) were monitored in response to the sequential administration of D-glucose (10 mM), oligomycin (1.5 μM) and 2-deoxyglucose (100 mM), to assess glycolysis, maximal glycolytic capacity, glycolytic reserve capacity, and non-glycolytic acidification rate, respectively. GAPDH activity was determined by a kinetic assay (ScienCell, Carlsbad, Calif.).

[3] = tested on: peritumor microvessel blood flow; assay: Tumor microvascular blood flow (laser Doppler); type: in vivo, mice; conditions: intratumoral injection; AOAA 9 mg/kg, L-cysteine 1 mg/kg
Procedure: FIG. 6. L-Cysteine increases, while AOAA reduces microvessel blood flow in tumor bearing mice. Tumor bearing mice were anesthetized by i.p. injection of ketamine-xylazine and a laser Doppler (PeriFlux system 5000) was placed on top of the tumor for microvessel blood flow measurements. After a stabilization period, L-Cys or AOAA were injected subcutaneously in proximity of the tumor. […] Data represent mean±SEM of n=6 determinations.
Skin microvascular blood flow was measured using a PeriFlux 5000 laser-Doppler flowmeter. Mice bearing PTX were anesthetized by ketamine-xylazine (i.p.). The laser-Doppler probe was placed on top of the tumors and a stable basal signal was recorded. Changes in the subcutaneous microcirculatory perfusion were detected following intratumoral injections of either L-cysteine (1 mg/kg) or AOAA (9 mg/kg).

HCT116 colon cancer cell [4] = assay: HCT116 colon cancer cell proliferation (xCELLigence); type: cell-based, human; conditions: AOAA 1 mM; 36 hours
HCT116 tumor xenografts = assay: HCT116 tumor xenograft in nude mice; type: in vivo, Nu/nu Balb/C female mice; conditions: AOAA 9 mg/kg/day s.c.
Procedure: Nu/nu Balb/C female mice (8-10 weeks) were injected subcutaneously in the right and left dorsum (10^6 cells/side with HCT-116 cells). One week later, the mice were randomized and subcutaneous injections of phosphate buffered saline (PBS) or AOAA (9 mg/kg/day) were performed 6 days/week. Tumor diameters were measured transcutaneously using calipers and tumor volumes were calculated using the formula V=(π/6)hd^2. T-test comparisons of the tumor volumes and final weights at harvest were performed. Xenotrials with patient-derived xenografts (PTX) were performed on nu/nu mice implanted subcutaneously with a piece of Passage 2 tumor measuring 2-5 mm^3 each. When a small palpable tumor was evident at 7-10 days, the mice with tumor take were randomized and subjected to subcutaneous injection of vehicle or AOAA (9 mg/kg/day) 6 days/week. Specimens were fixed with 10% formalin and embedded in paraffin. 5 μm sections were stained with hematoxylin and eosin. Each in vivo experiment was repeated at least twice.
Tissue preparation, immunostaining of CD31, and evaluation of microvessel density with the Chakley reticle was performed as described (Chao et al. (1996) Cancer Res. 56:4811-19).
Nu/nu Balb/c female mice (8-10 weeks) were injected subcutaneously in the right and left dorsum (10^6 cells/side with HCT116 cells). One week later, the mice were randomized and subcutaneous injection of phosphate buffered saline (PBS control) or YD2-51 (0.1, 0.5 or 1 mg/kg) was performed 6 days/week. Tumor volumes and final weights at harvest (post-tumor injection Day 28) were performed and tumor weight/animal weight ratios calculated.

NOCC(=O)O [AOAA, aminooxyacetic acid]
HCT116-induced endothelial cell migration [1]: reduced
concentrations at which antiproliferative effects and effects on cellular energetics manifest in cell-based assays (HCT116 colon cancer cell [2]): higher (millimolar) concentrations
basal OCR, calculated ATP production, maximal respiration and Spare Respiratory Capacity (HCT116 cells): significantly decreased
maximal glycolytic capacity and glycolytic reserve capacity (HCT116 cells): significantly diminished
peritumor / skin microvessel blood flow [3]: significantly reduced; also recorded: marked decrease
HCT116 cell proliferation (HCT116 colon cancer cell [4]): markedly reduced
rate of HCT116 xenograft growth (HCT116 tumor xenografts; 6 days/week): significantly slowed
tumor size and weight at harvest (HCT116 tumor xenografts; 6 days/week): reduced size and weight
plasma concentration of H2S (HCT116 tumor xenografts; tumor-bearing mice): reduction
